Entries after “also recorded” stand apart in the source; their conditions may differ.
Key:
RORγ = tested on: RORγ; design: method as in ToxCast database released in October 2015; settings: active/inactive call; ref ToxCast database released in October 2015; cited from earlier work
[1] = biological target: T1, PPARγ ligand binding domain (204–477) (Homo sapiens, UniProt P37231); experiment: Surface plasmon resonance (SPR) analysis of fatty acid binding to immobilized PPARγ LBD; settings: for Rmax: SPR steady-state fit, FUA: chip coupled with 12000RU; for binding to PPARγ in SPR (in words): compared with DHA and EPA; for Kd: steady-state fit, Biacore T200, chip about 6500 RU (FUA: chip coupled with 12000RU PPARγ LBD)
T1 construct: GST (N, cleaved yes); made in house; host or cells: E. coli BL21(DE3)
T1 sequence (P37231 204-477 isoform P37231-2): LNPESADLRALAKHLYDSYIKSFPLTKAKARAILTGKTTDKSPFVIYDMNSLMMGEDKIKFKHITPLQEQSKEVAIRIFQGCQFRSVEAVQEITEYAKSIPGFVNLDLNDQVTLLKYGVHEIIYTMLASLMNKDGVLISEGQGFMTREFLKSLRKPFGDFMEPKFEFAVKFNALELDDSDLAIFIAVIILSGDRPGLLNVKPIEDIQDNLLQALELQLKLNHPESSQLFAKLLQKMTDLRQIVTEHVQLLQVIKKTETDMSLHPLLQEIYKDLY
Method: The protein was firstly purified using a glutathione Sephararose 4B column, followed by PreScission protease cleavage to remove the GST-tag. […] The finally collected protein in 20 mM Tirs, pH8.0, 150 mM NaCl and 2 mM DTT was concentrated to 20 mg/ml. The purity was checked by SDS-PAGE and protein was stored at − 80 °C for use.
PPARγ (0.05 mg/ml) were coupled onto CM5 sensor chips according to amine coupling procedure from the manufacturer’s manual. […] A reference channel was generated at same conditions without protein injection and used as a blank control to correct the instrument or buffer artifacts. Fatty acids were dissolved in DMSO and diluted with concentration ranging from 0.78 to 50 μM, and injected at a flowrate of 40 μL/min. Each sensorgram consists of an association phase (120 s), indicating the binding of the injected compound to the protein, followed by a dissociation phase (300 s) during which the running buffer (10 mM phosphate buffer, 150 mM NaCl, 5% DMSO, 0.05% Tween 20, pH 7.4) is passed over and the bound compounds were eluted from the chip surface. The Kd was calculated by steady-state binding fitting method in Biacore T200 evaluate the software.

GR = tested on: GR; design: method as in ToxCast database released in October 2015; settings: active/inactive call; ref ToxCast database released in October 2015; cited from earlier work
PR = tested on: PR; design: method as in ToxCast database released in October 2015; settings: active/inactive call; ref ToxCast database released in October 2015; cited from earlier work
AR = tested on: AR; design: method as in ToxCast database released in October 2015; settings: active/inactive call; ref ToxCast database released in October 2015; cited from earlier work
PPARα = tested on: PPARα; design: method as in ToxCast database released in October 2015; settings: active/inactive call; ref ToxCast database released in October 2015; cited from earlier work

Row | Rmax [1] | binding to PPARγ in SPR (in words) [1] | Kd [1] [µM] | Molecule | also measured
1 | – | – | – | CC(C)c1cccc(C(C)C)c1N1C(=O)c2ccc(O)cc2C1=O [5HPP-33] | ToxCast activity against RORγ (RORγ): active
2 | 281 RU | – | – | CC/C=C\C/C=C\C/C=C\C/C=C\C/C=C\C/C=C\CCC(=O)O [DHA, Docosahexaenoic acid, reference compound] | –
3 | 136 RU | – | 629 | CC/C=C\C/C=C\C/C=C\C/C=C\C/C=C\CCCC(=O)O [EPA, Eicosapentaenoic acid, reference compound] | –
4 | – | – | – | CC(C)[C@H](C(=O)O[C@H](C#N)c1cccc(Oc2ccccc2)c1)c1ccc(Cl)cc1 [Esfenvalerate] | ToxCast activity against GR (GR): active
5 | 38.55 RU | stronger binding than DHA and EPA | 136 | CCCCCc1cc(C)c(CCCCCCCCC(=O)O)o1 [FNA, 10,13-epoxy-11-methyloctadeca-10,12-dienoic acid] | –
6 | 459.3 RU | stronger binding than DHA and EPA | 249 | CCCc1cc(C)c(CCCCCCCCCCC(=O)O)o1 [FUA, 11-(3-methyl-5-propylfuran-2-yl)undecanoic acid] | –
7 | – | – | – | CC1(C)NC(=O)N(c2ccc([N+](=O)[O-])c(C(F)(F)F)c2)C1=O [Nilutamide] | ToxCast activity against PR (PR): active
8 | – | – | – | O=C(O)CN(CC(=O)O)CC(=O)O [Nitrilotriacetic acid] | ToxCast activity against AR (AR): active
9 | 33.28 RU | stronger binding than DHA and EPA | 103 | CCCCCCC1CC1CCCCCCCCCC(=O)O (centres unmarked) [PTA, Phytomonic acid] | –
10 | > 10,000.00 RU | weaker binding than DHA | > 10000 | CCCCCC[C@@H](O)C/C=C\CCCCCCCC(=O)O [ROA, ricinoleic acid] | –
11 | – | – | – | CN1CCc2cccc3c2[C@H]1Cc1ccc(O)c(O)c1-3 [apomorphine, reference compound] | ToxCast activity against PPARα (PPARα): active
12 | – | – | – | CCOC(=O)C(C)OC(=O)c1cc(Oc2ccc(C(F)(F)F)cc2Cl)ccc1[N+](=O)[O-] (centres unmarked) [lactofen] | ToxCast activity against AR (AR): active
13 | – | – | – | O=c1c(O)c(-c2ccc(O)cc2O)oc2cc(O)cc(O)c12 [morin] | ToxCast activity against PPARα (PPARα): active
14 | – | – | – | Cl.N=C1C=CC(=C(c2ccc(N)cc2)c2ccc(N)cc2)C=C1 [parafuchsin] | ToxCast activity against RORγ (RORγ): active
15 | – | – | – | Oc1ccc(/C=C/c2cc(O)cc(O)c2)cc1 [reservertol] | ToxCast activity against RORγ (RORγ): active
16 | – | – | – | O=C(c1ccc(O)cc1O)c1ccc(O)cc1O [tetrahydroxybenzophenone] | ToxCast activity against AR (AR): active
17 | – | – | – | CC1(C)CCC(=Cc2ccc(Cl)cc2)C1(O)Cn1cncn1 (centres unmarked) [triconazole] | ToxCast activity against AR (AR): active
18 | > 10,000.00 RU | weaker binding than DHA | > 10000 | eicosatrienoic acid [ESA] | –

Row | Molecule | Rmax [1] | binding to PPARγ in SPR (in words) [1] | Kd [1] [µM] | also measured
19 | CC/C=C\C/C=C\C/C=C\C/C=C\C/C=C\CCCCCC(=O)O [DPA, docosapentaenoic acid] | 2167 RU | weaker binding than DHA; also recorded: confirmed to bind to PPARγ, weaker than DHA and EPA | 3960 | –

From paper PMC7811525, “Virtual screening of potentially endocrine-disrupting chemicals against nuclear receptors and its application to identify PPARγ-bound fatty acids” (Archives of Toxicology, 2020)
